Results published in patent US20110152087A1, “Herbicidal compositions comprising flufenacet” (Bayer CropScience AG, priority 2009, published 2011).

Columns and labels:
Format in all cases: in vivo
[1] = test system: ALOMY=Alopecurus myosuroides=weed; assay: Greenhouse trial, post-emergence action against weeds (test method 1); details: PO application, about 3 weeks after application; g of AS/ha: flufenacet 120, diclofop 378, diflufenican 120, mixture 120+378+120
Description: (§1) In the standard design of the test, seeds of various broad-leaved weed and weed grass biotypes (origins) were sown in a 8-13 cm diameter pot filled with natural soil of a standard field soil (loamy silt; non-sterile) and covered with a covering soil layer of about 1 cm. The pots were then cultivated in a greenhouse (12-16 h of light, temperature day 20-22° C., night 15-18° C.) until the time of application. The pots were treated on a laboratory track sprayer with spray liquors comprising the compositions according to the invention, mixtures of the prior art or components used individually. Application of the active compounds or active compound combinations formulated as WG, WP, EC or otherwise was carried out at the appropriate growth stages of the plants. The application rate for the spray application was 100-600 l of water/ha. After the treatment, the plants were returned to the greenhouses.
(§2) About 3 weeks after the application, the soil action or/and foliar action was assessed visually according to a scale of 0-100% in comparison to an untreated comparative group: 0%=no noticeable effect compared to the untreated comparative group; 100%=full effect compared to the untreated comparative group.
(§3) (notes: the term “seeds” also includes vegetative propagation forms such as, for example, rhizome pieces; abbreviations used: h light=hours of illumination, g of AS/ha=gram of active substance per hectare, l/ha=liter per hectare, S=sensitive, R=resistant) • 1. Post-emergence action against weeds: seeds of various broad-leaved weed and weed grass biotypes (origins) were sown in a 8-13 cm diameter pot filled with natural soil of a standard field soil (loamy silt; non-sterile) and covered with a covering soil layer of about 1 cm. The pots were then cultivated in a greenhouse (12-16 h of light, temperature day 20-22° C., night 15-18° C.) until the time of application. The pots were treated at various BBCH stages between 11-25 of the seeds/plants, i.e. generally between two to three weeks after the start of the cultivation, on a laboratory track sprayer with spray liquors comprising the compositions according to the invention, mixtures or components used individually, as WG, WP, EC or other formulations. The application rate for the spray application was 100-600 l of water/ha. After the treatment, the plants were returned to the greenhouses and, when required, treated with fertilizer and watered. • 2. Selective post-emergence action: seeds of various crop species (origins) were sown in a 8-13 cm diameter pot filled with natural soil of a standard field soil (loamy silt; non-sterile) and covered with a covering soil layer of about 1 cm. The pots were then cultivated in a greenhouse (12-16 h of light, temperature day 20-22° C., night 15-18° C.) until the time of application. The pots were treated at various BBCH stages between 11-32 of the seeds/plants, i.e. generally between two to four weeks after the start of the cultivation, on a laboratory track sprayer with spray liquors comprising the compositions according to the invention, mixtures or components used individually, as WG, WP, EC or other formulations. The application rate for the spray application was 100-600 l of water/ha. After the treatment, the plants were returned to the greenhouses and, when required, treated with fertilizer and watered. The pots were cultivated in a greenhouse (12-16 h light, temperature day 20-22° C., night 15-18° C.).
(§4) E=(A+B+C)−(A×B+A×C+B×C)/100+(A×B×C)/10 000 • in which: • A, B, C=each the activity of the components A or B or C in percent at a dosage of a or b gram of AS/ha; • E^C=expected value according to Colby in % at a dosage of a+b gram of AS/ha. • Δ=difference (%) of measured value−%-to expected value−%-(measured value minus expected value) • Δ^D=difference (%) of the measured value of an observation A−%-to the measured value of an observation B−%. […]

[2] = test system: APESV=Apera Spica-venti=weed; assay: as above; details: PO application, about 3 weeks after application; g of AS/ha: flufenacet 120, diclofop 378, diflufenican 120, mixture 120+378+120
Description: as §1, §2, §3, §4

[3] = test system: STEME=Stellaria media=weed; assay: as above; details: PO application, about 3 weeks after application; g of AS/ha: flufenacet 120, diclofop 378, diflufenican 120, mixture 120+378+120
Description: as §1, §2, §3, §4

[4] = test system: TRZAW=Triticum aestivum, winter wheat=crop plant; assay: Greenhouse trial, selective post-emergence action on crop plants (test method 2)
Description: as §1, §2, §3, §4

[5] = test system: TRZAS=Triticum aestivum, summer wheat=crop plant; assay: as above
Description: as §1, §2, §3, §4

[6] = PO application, about 3 weeks after application, g of AS/ha: flufenacet 120, diclofop 378, diflufenican 120, mixture 120+378+120

| SMILES | activity ALOMY, visual assessment on scale 0-100% versus untreated [1] [%] | activity APESV, visual assessment on scale 0-100% versus untreated [2] [%] | activity STEME, visual assessment on scale 0-100% versus untreated [3] [%] | action on crop plant TRZAW, visual assessment on scale 0-100% versus untreated [4, 6] [%] | action on crop plant TRZAS, visual assessment on scale 0-100% versus untreated [5, 6] [%] | action on crop plant TRZAW, visual assessment on scale 0-100% versus untreated ([4]; in vivo, po) [%] | action on crop plant TRZAS, visual assessment on scale 0-100% versus untreated ([5]; in vivo, po) [%] |
| --- | --- | --- | --- | --- | --- | --- | --- |
| CC(Oc1ccc(Oc2ccc(Cl)cc2Cl)cc1)C(=O)O (racemic) [(B) diclofop, (±)-2-[4-(2,4-dichlorophenoxy)phenoxy]propanoic acid] | 15 | 0 | 0 | 20 | 10 |  |  |
| O=C(Nc1ccc(F)cc1F)c1cccnc1Oc1cccc(C(F)(F)F)c1 [(C) diflufenican, N-(2,4-difluorophenyl)-2-[3-(trifluoromethyl)phenoxy]-3-pyridinecarboxamide] | 10 | 5 | 30 | 5 | 5 |  |  |
| CC(C)N(C(=O)COc1nnc(C(F)(F)F)s1)c1ccc(F)cc1 [(A) flufenacet, N-(4-fluorophenyl)-N-(1-methylethyl)-2-[[5-(trifluoromethyl)-1,3,4-thiadiazol-2-yl]oxy]acetamide] | 65 | 60 | 30 |  |  | 50 | 40 |
